Test system: MV-4-11 cells
Assay: Gene expression microarray analysis (Affymetrix PrimeView) and GSEA
Type: cell-based, human
Parameters: RFU PODN (11730768_x_at) / Fold change /veh PODN (11730768_x_at) / RFU LINC00158 (11744669_a_at) / Fold change /veh LINC00158 (11744669_a_at) / RFU DUSP10 (11751237_a_at) / Fold change /veh DUSP10 (11751237_a_at) / RFU ID3 (11757404_x_at) / Fold change /veh ID3 (11757404_x_at) / RFU PLEKHG5 (11737974_s_at) / Fold change /veh PLEKHG5 (11737974_s_at) / RFU LRRC4B (11730491_at) / Fold change /veh LRRC4B (11730491_at) / RFU GIMAP4 (11747438_a_at) / Fold change /veh GIMAP4 (11747438_a_at) / RFU KRT8 (11758183_x_at) / Fold change /veh KRT8 (11758183_x_at) / RFU CNN1 (11734310_a_at) / Fold change /veh CNN1 (11734310_a_at) / RFU VPS37D (11726825_at) / Fold change /veh VPS37D (11726825_at) / RFU C10orf10 (11716522_x_at) / Fold change /veh C10orf10 (11716522_x_at) / RFU KIR2DL2 /// KIR2DL4 /// KIR2DL5A /// KIR2DL5B /// KIR2DS1 /// KIR2DS2 /// KIR2DS3 /// KIR2DS4 /// KIR3DL3 /// KIR3DL3 /// KIR3DS1 (11738374_at) / Fold change /veh KIR2DL2 /// KIR2DL4 /// KIR2DL5A /// KIR2DL5B /// KIR2DS1 /// KIR2DS2 /// KIR2DS3 /// KIR2DS4 /// KIR3DL3 /// KIR3DL3 /// KIR3DS1 (11738374_at) / RFU C1QL1 (11718748_at) / Fold change /veh C1QL1 (11718748_at) / RFU TMPRSS4 (11747572_a_at) / Fold change /veh TMPRSS4 (11747572_a_at) / RFU HAMP (11756126_x_at) / Fold change /veh HAMP (11756126_x_at) / RFU RNFT2 (11725882_a_at) / Fold change /veh RNFT2 (11725882_a_at) / RFU NR4A2 (11747474_a_at) / Fold change /veh NR4A2 (11747474_a_at) / RFU ABCC12 (11746883_a_at) / Fold change /veh ABCC12 (11746883_a_at) / RFU TMEM136 (11760407_x_at) / Fold change /veh TMEM136 (11760407_x_at) / RFU CLDN22 /// WWC2 (11732394_at) / Fold change /veh CLDN22 /// WWC2 (11732394_at) / RFU HLA-DPB1 (11760878_x_at) / Fold change /veh HLA-DPB1 (11760878_x_at) / RFU SPINT1 (11716480_a_at) / Fold change /veh SPINT1 (11716480_a_at) / RFU GAP43 (11754022_s_at) / Fold change /veh GAP43 (11754022_s_at) / RFU A4GNT (11735810_at) / Fold change /veh A4GNT (11735810_at) / RFU PRB3 (11715151_x_at) / Fold change /veh PRB3 (11715151_x_at) / RFU TUBB4B (11761932_at) / Fold change /veh TUBB4B (11761932_at) / RFU CAPN14 (11732068_a_at) / Fold change /veh CAPN14 (11732068_a_at) / RFU TMCC2 (11721928_a_at) / Fold change /veh TMCC2 (11721928_a_at) / RFU IRGQ (11745062_a_at) / Fold change /veh IRGQ (11745062_a_at) / RFU FAM174B (11720279_a_at) / Fold change /veh FAM174B (11720279_a_at) / RFU TMPRSS4 (11748680_a_at) / Fold change /veh TMPRSS4 (11748680_a_at) / RFU FAM212B (11763350_a_at) / Fold change /veh FAM212B (11763350_a_at) / RFU PLEKHG5 (11743358_a_at) / Fold change /veh PLEKHG5 (11743358_a_at) / RFU ZSCAN30 (11745921_a_at) / Fold change /veh ZSCAN30 (11745921_a_at) / RFU CMKLR1 (11741424_a_at) / Fold change /veh CMKLR1 (11741424_a_at) / RFU LOC101060620 /// MAPK8IP1 (11723275_at) / Fold change /veh LOC101060620 /// MAPK8IP1 (11723275_at) / RFU SPTSSB (11747773_x_at) / Fold change /veh SPTSSB (11747773_x_at) / RFU PRSS12 (11739890_at) / Fold change /veh PRSS12 (11739890_at) / RFU BIN1 (11741810_x_at) / Fold change /veh BIN1 (11741810_x_at) / RFU WNT11 (11732464_a_at) / Fold change /veh WNT11 (11732464_a_at) / RFU C10orf10 (11716521_a_at) / Fold change /veh C10orf10 (11716521_a_at) / RFU C5orf56 (11738089_at) / Fold change /veh C5orf56 (11738089_at) / RFU CYB561 (11721691_x_at) / Fold change /veh CYB561 (11721691_x_at) / RFU ANKRD19P (11752326_a_at) / Fold change /veh ANKRD19P (11752326_a_at) / RFU OR2T12 /// OR2T33 /// OR2T8 (11738714_s_at) / Fold change /veh OR2T12 /// OR2T33 /// OR2T8 (11738714_s_at) / RFU VCAN (11748164_a_at) / Fold change /veh VCAN (11748164_a_at) / RFU JSRP1 (11732532_at) / Fold change /veh JSRP1 (11732532_at) / RFU KRTAP10-11 (11738290_x_at) / Fold change /veh KRTAP10-11 (11738290_x_at) / RFU MYO3A (11730013_a_at) / Fold change /veh MYO3A (11730013_a_at) / RFU EBF3 (11725865_a_at) / Fold change /veh EBF3 (11725865_a_at) / RFU CAMK2N1 (11719241_x_at) / Fold change /veh CAMK2N1 (11719241_x_at) / RFU C5orf56 (11738088_a_at) / Fold change /veh C5orf56 (11738088_a_at) / RFU OLFML3 (11715873_a_at) / Fold change /veh OLFML3 (11715873_a_at) / RFU LOC100653217 /// NTM (11731650_a_at) / Fold change /veh LOC100653217 /// NTM (11731650_a_at) / RFU MAPK11 (11762145_a_at) / Fold change /veh MAPK11 (11762145_a_at) / RFU FIZ1 (11724087_x_at) / Fold change /veh FIZ1 (11724087_x_at) / RFU OASL (11726364_x_at) / Fold change /veh OASL (11726364_x_at) / RFU SOX15 (11748057_x_at) / Fold change /veh SOX15 (11748057_x_at) / RFU CD79A (11719716_a_at) / Fold change /veh CD79A (11719716_a_at) / RFU HIST1H1D (11736915_at) / Fold change /veh HIST1H1D (11736915_at) / RFU CASKIN2 (11723855_a_at) / Fold change /veh CASKIN2 (11723855_a_at) / RFU LOC730098 (11760151_x_at) / Fold change /veh LOC730098 (11760151_x_at) / RFU OR4N2 (11742367_at) / Fold change /veh OR4N2 (11742367_at) / RFU PRRT2 (11749266_a_at) / Fold change /veh PRRT2 (11749266_a_at) / RFU SNX32 (11753110_a_at) / Fold change /veh SNX32 (11753110_a_at) / RFU CDHR5 (11726645_a_at) / Fold change /veh CDHR5 (11726645_a_at) / RFU RCAN1 (11760418_a_at) / Fold change /veh RCAN1 (11760418_a_at) / RFU FAM167A (11723789_a_at) / Fold change /veh FAM167A (11723789_a_at) / RFU FAM26E (11764081_at) / Fold change /veh FAM26E (11764081_at) / RFU ISYNA1 (11749810_s_at) / Fold change /veh ISYNA1 (11749810_s_at) / RFU ACY1 (11761880_at) / Fold change /veh ACY1 (11761880_at) / RFU 11764098_at / Fold change /veh 11764098_at / RFU SAMD14 (11745864_x_at) / Fold change /veh SAMD14 (11745864_x_at) / RFU NPB (11741838_a_at) / Fold change /veh NPB (11741838_a_at) / RFU TMPRSS6 (11731388_a_at) / Fold change /veh TMPRSS6 (11731388_a_at) / RFU KRTAP10-2 (11738614_at) / Fold change /veh KRTAP10-2 (11738614_at) / RFU ARHGAP8 /// PRR5-ARHGAP8 (11727945_x_at) / Fold change /veh ARHGAP8 /// PRR5-ARHGAP8 (11727945_x_at) / RFU KRTAP5-7 /// NADSYN1 (11734609_at) / Fold change /veh KRTAP5-7 /// NADSYN1 (11734609_at) / RFU RASL12 (11751679_a_at) / Fold change /veh RASL12 (11751679_a_at) / RFU CDKN2B (11736163_a_at) / Fold change /veh CDKN2B (11736163_a_at) / RFU PRF1 (11729649_at) / Fold change /veh PRF1 (11729649_at) / RFU, ZNF638 /// ZNF638-IT1 / Fold change vs veh, ZNF638 /// ZNF638-IT1 / RFU, PANK3 / Fold change vs veh, PANK3 / RFU, SH3YL1 / Fold change vs veh, SH3YL1 / RFU, ZEB2 / Fold change vs veh, ZEB2 / RFU, NRIP1 / Fold change vs veh, NRIP1 / RFU, PTTG1IP / Fold change vs veh, PTTG1IP / RFU, CAPN2 / Fold change vs veh, CAPN2 / RFU, MED14 / Fold change vs veh, MED14 / RFU, SNORA58 / Fold change vs veh, SNORA58 / RFU, C1orf63 / Fold change vs veh, C1orf63 / RFU, LRRFIP1 / Fold change vs veh, LRRFIP1 / RFU, NDUFAF7 / Fold change vs veh, NDUFAF7 / RFU, SLC12A2 / Fold change vs veh, SLC12A2 / RFU, IBTK / Fold change vs veh, IBTK / RFU, ESF1 / Fold change vs veh, ESF1 / Fold change vs veh, TMEM50B / RFU, TAOK1 / Fold change vs veh, TAOK1 / RFU, ACBD3 / Fold change vs veh, ACBD3 / RFU, TMA16 / Fold change vs veh, TMA16 / RFU, RWDD3 / Fold change vs veh, RWDD3 / RFU, BCAT1 / Fold change vs veh, BCAT1 / RFU, EDEM3 / Fold change vs veh, EDEM3 / RFU, TMEM33 / Fold change vs veh, TMEM33 / RFU, WDR75 / Fold change vs veh, WDR75 / RFU, AHCTF1 / Fold change vs veh, AHCTF1 / RFU, TFRC / Fold change vs veh, TFRC / RFU, ZDHHC17 / Fold change vs veh, ZDHHC17 / RFU, NOM1 / Fold change vs veh, NOM1 / RFU, ARL8B / Fold change vs veh, ARL8B / RFU, ZBTB11 / Fold change vs veh, ZBTB11 / RFU, TAMM41 / Fold change vs veh, TAMM41 / RFU, KIAA1704 /// LOC100996395 / Fold change vs veh, KIAA1704 /// LOC100996395 / RFU, ING1 / Fold change vs veh, ING1 / RFU, TRMT61B / Fold change vs veh, TRMT61B / RFU, FUBP3 / Fold change vs veh, FUBP3 / RFU, TP53 / Fold change vs veh, TP53 / RFU, TNKS2 / Fold change vs veh, TNKS2 / RFU, ZFP14 / Fold change vs veh, ZFP14 / RFU, ACTR2 / Fold change vs veh, ACTR2 / RFU, PPP3R1 / Fold change vs veh, PPP3R1 / RFU, PIK3R1 / Fold change vs veh, PIK3R1 / RFU, HNRNPA1 / Fold change vs veh, HNRNPA1 / RFU, RNF170 / Fold change vs veh, RNF170 / RFU, ZNF28 / Fold change vs veh, ZNF28 / RFU, RNGTT / Fold change vs veh, RNGTT / RFU, OGT / Fold change vs veh, OGT / RFU, BRD1 / Fold change vs veh, BRD1 / RFU, MARS / Fold change vs veh, MARS / RFU, ZNF655 / Fold change vs veh, ZNF655 / RFU, FAHD1 / Fold change vs veh, FAHD1 / RFU, BDP1 / Fold change vs veh, BDP1 / RFU, LRRCC1 / Fold change vs veh, LRRCC1 / RFU, ARID1A / Fold change vs veh, ARID1A / RFU, ZNF146 / Fold change vs veh, ZNF146 / RFU, ZNF330 / Fold change vs veh, ZNF330 / RFU, GPN3 / Fold change vs veh, GPN3 / RFU, C9orf123 / Fold change vs veh, C9orf123 / RFU, N4BP2L2 / Fold change vs veh, N4BP2L2 / RFU, ARFIP1 / Fold change vs veh, ARFIP1 / RFU, FAM179B / Fold change vs veh, FAM179B / RFU, BCL10 / Fold change vs veh, BCL10 / RFU, UHRF1BP1L / Fold change vs veh, UHRF1BP1L / RFU, BET1 / Fold change vs veh, BET1 / RFU, CNOT2 / Fold change vs veh, CNOT2 / RFU, ZNF268 / Fold change vs veh, ZNF268 / Fold change vs veh, ZNF507 / RFU, DGCR2 / Fold change vs veh, DGCR2 / RFU, WDSUB1 / Fold change vs veh, WDSUB1 / Fold change vs veh, HSP90B1 /// MIR3652 / RFU, ADSS / Fold change vs veh, ADSS / RFU, GK / Fold change vs veh, GK / RFU, ZNF148 / Fold change vs veh, ZNF148 / RFU, TAF9 / Fold change vs veh, TAF9 / RFU, SLC1A5 / Fold change vs veh, SLC1A5 / RFU, SLMO2 / Fold change vs veh, SLMO2 / RFU, ABCC4 / Fold change vs veh, ABCC4 / RFU, LOC101060439 /// RAP1B / Fold change vs veh, LOC101060439 /// RAP1B / RFU, RFX7 / Fold change vs veh, RFX7 / RFU, GTPBP10 / Fold change vs veh, GTPBP10 / RFU, CNEP1R1 / Fold change vs veh, CNEP1R1 / RFU, BIVM-ERCC5 /// ERCC5 / Fold change vs veh, BIVM-ERCC5 /// ERCC5 / RFU, ILF3 / Fold change vs veh, ILF3 / RFU 11762660_at / Fold change /veh 11762660_at / RFU VCAN (11757783_s_at) / Fold change /veh VCAN (11757783_s_at) / RFU DDX43 (11728927_at) / Fold change /veh DDX43 (11728927_at) / RFU KRT8 (11758188_x_at) / Fold change /veh KRT8 (11758188_x_at) / RFU NKD1 (11759106_at) / Fold change /veh NKD1 (11759106_at) / RFU SRD5A1 (11742802_a_at) / Fold change /veh SRD5A1 (11742802_a_at) / RFU TPSAB1 /// TPSB2 (11721975_s_at) / Fold change /veh TPSAB1 /// TPSB2 (11721975_s_at) / RFU GSTM3 (11746129_a_at) / Fold change /veh GSTM3 (11746129_a_at) / RFU IL23R (11737362_x_at) / Fold change /veh IL23R (11737362_x_at) / RFU TMEM51 (11727254_a_at) / Fold change /veh TMEM51 (11727254_a_at) / RFU PIWIL2 (11732686_x_at) / Fold change /veh PIWIL2 (11732686_x_at) / RFU ORM1 (11744905_x_at) / Fold change /veh ORM1 (11744905_x_at) / RFU CCDC152 (11743942_at) / Fold change /veh CCDC152 (11743942_at) / RFU ECM1 (11717891_a_at) / Fold change /veh ECM1 (11717891_a_at) / RFU IL23R (11748794_a_at) / Fold change /veh IL23R (11748794_a_at) / RFU TNFAIP8L3 (11732012_x_at) / Fold change /veh TNFAIP8L3 (11732012_x_at) / RFU MBOAT4 (11741988_at) / Fold change /veh MBOAT4 (11741988_at) / RFU 11764193_at / Fold change /veh 11764193_at / RFU TMEM53 (11763286_at) / Fold change /veh TMEM53 (11763286_at) / RFU MAGEB2 (11727129_at) / Fold change /veh MAGEB2 (11727129_at) / RFU TMEM200A (11744735_a_at) / Fold change /veh TMEM200A (11744735_a_at) / RFU CCDC152 (11751479_a_at) / Fold change /veh CCDC152 (11751479_a_at) / RFU FAM211A (11726209_a_at) / Fold change /veh FAM211A (11726209_a_at) / RFU RGS16 (11746705_a_at) / Fold change /veh RGS16 (11746705_a_at) / RFU VCAN (11755009_s_at) / Fold change /veh VCAN (11755009_s_at) / RFU RHOB (11743442_s_at) / Fold change /veh RHOB (11743442_s_at) / RFU RGS16 (11720943_a_at) / Fold change /veh RGS16 (11720943_a_at) / RFU RGS16 (11720944_at) / Fold change /veh RGS16 (11720944_at) / RFU, VPS4B / Fold change vs veh, VPS4B / RFU, CREB1 / Fold change vs veh, CREB1 / RFU, DNAJC13 / Fold change vs veh, DNAJC13 / RFU, GNAQ / Fold change vs veh, GNAQ / RFU, CDK5R1 / Fold change vs veh, CDK5R1 / RFU, ZRANB3 / Fold change vs veh, ZRANB3 / RFU, CUL4A / Fold change vs veh, CUL4A / RFU, CCNY / Fold change vs veh, CCNY / RFU, UFL1 / Fold change vs veh, UFL1 / RFU, COG3 / Fold change vs veh, COG3 / RFU, DIAPH2 / Fold change vs veh, DIAPH2 / RFU, SKA2 / Fold change vs veh, SKA2 / RFU, AFF3 / Fold change vs veh, AFF3 / RFU, LMF1 / Fold change vs veh, LMF1 / RFU, IPO11 / Fold change vs veh, IPO11 / RFU, DFFB / Fold change vs veh, DFFB / RFU, FOXP1 / Fold change vs veh, FOXP1 / RFU, CARD8 / Fold change vs veh, CARD8 / RFU, STRN3 / Fold change vs veh, STRN3 / RFU, ADK / Fold change vs veh, ADK / RFU, RASSF2 / Fold change vs veh, RASSF2 / RFU, WIPF1 / Fold change vs veh, WIPF1 / RFU, LARP1B / Fold change vs veh, LARP1B / RFU, RASA1 / Fold change vs veh, RASA1 / RFU, RB1 / Fold change vs veh, RB1 / RFU, PPFIA1 / Fold change vs veh, PPFIA1 / RFU, MAT2A / Fold change vs veh, MAT2A / RFU, CCT5 / Fold change vs veh, CCT5 / RFU, WDR92 / Fold change vs veh, WDR92 / RFU, CUX1 / Fold change vs veh, CUX1 / RFU, TTC7A / Fold change vs veh, TTC7A / RFU, TMEM135 / Fold change vs veh, TMEM135 / RFU, DEPTOR / Fold change vs veh, DEPTOR / RFU, CPM / Fold change vs veh, CPM / RFU, DNAJB6 / Fold change vs veh, DNAJB6 / RFU, CACNA2D3 / Fold change vs veh, CACNA2D3 / RFU, DTX4 / Fold change vs veh, DTX4 / RFU, TFCP2 / Fold change vs veh, TFCP2 / RFU, GMCL1 /// GMCL1P1 / Fold change vs veh, GMCL1 /// GMCL1P1 / RFU, AEBP2 / Fold change vs veh, AEBP2 / RFU, SNHG1 /// SNORD22 /// SNORD25 /// SNORD26 /// SNORD27 /// SNORD28 /// SNORD29 /// SNORD31 / Fold change vs veh, SNHG1 /// SNORD22 /// SNORD25 /// SNORD26 /// SNORD27 /// SNORD28 /// SNORD29 /// SNORD31 / Fold change (Aza/veh), C12orf56 (ProbeSet 11735607_a_at) / Fold change (ACY-1035/veh), C12orf56 (ProbeSet 11735607_a_at) / Fold change (Aza/veh), FGFR1OP (ProbeSet 11751329_s_at) / Fold change (ACY-1035/veh), FGFR1OP (ProbeSet 11751329_s_at) / Fold change (Aza/veh), VPS36 (ProbeSet 11739960_a_at) / Fold change (ACY-1035/veh), VPS36 (ProbeSet 11739960_a_at) / RFU SYPL1 (11715823_x_at) / Fold change /veh SYPL1 (11715823_x_at) / RFU IGFBP7 (11715501_s_at) / Fold change /veh IGFBP7 (11715501_s_at) / RFU REEP3 (11722064_at) / Fold change /veh REEP3 (11722064_at) / RFU IGLL1 (11728026_x_at) / Fold change /veh IGLL1 (11728026_x_at): dose or concentration left out as unconfirmed
Settings: ProbeSet 11740781_a_at; LIST B

## Nc1ncn([C@@H]2O[C@H](CO)[C@@H](O)[C@H]2O)c(=O)n1 [azacitidine]
  RFU, ILF3: 260.31 RFU
